Assay results taken from PMC4568831 (Molecular pharmaceutics, 2015).
Read-outs that look alike come from different tables or passages of the source.

Experiments:
[1] = humans; cited from earlier work
[2] = In vitro precipitation / solubilization of CFZ in aqueous media; type: physicochemical; conditions: ~5 M HCl, diprotonated state
[3] = cited from earlier work
[4] = Measurement of CFZ in tissues, partition ratios after prolonged oral dosing; type: in vivo, mice (male C57Bl6); conditions: mice, after eight week washout period
[5] = mice; cited from earlier work

For `CC(C)/N=c1\cc2n(-c3ccc(Cl)cc3)c3ccccc3nc-2cc1Nc1ccc(Cl)cc1` [CFZ, Clofazimine], the “pharmacokinetic half-life t1/2” value [1] is given as ~ 70 days, the “pH at which CFZ was completely solubilized in aqueous media” value [2] is given as under 1 and the half-life ([3]; oral, after an acute dose) is given as “hours to days”. The half-life ([3]; upon prolonged oral administration) was “weeks to months”, the “CFZ mass retained in spleen” value [4] was “exceeded its combined mass retained in the other organs” and the “pharmacokinetic half-life t1/2” value [5] was 7 days.
